Source: US7993756B2, “Long-chain quaternary ammonium compounds as wood treatment agents” (Viance, LLC, priority 2005, dated 2011)

Assays:
[1] = system: soil-bed decay of Southern Pine Mini-Stakes; test: Accelerated Soil-bed Decay Test of Southern Pine Mini-Stakes (AWPA Standard Test Method E14); conditions: addition of 0.8% 2HT; all three retention levels; after about 10 years exposure
Description: A decay rating of 100 means no decay, and a rating of 0 indicates failure due to decay.

[2] = system: Postia placenta; test: Standard soil-block decay test (AWPA Standard Test Method E-10); format: cell-based; conditions: 2HT at 0.8% in the treating solution
Description: The vertical axis is percent weight loss of the wood blocks (negative numbers represent weight gain), and the horizontal axis is ACQ® wood preservative retention in the wood blocks expressed on a weight preservative/weight wood basis. […] The toxic threshold of ACQ® wood preservative against Postia placenta is estimated to be 0.7-0.8% in this test (FIG. 4).

dimethyl di(hydrogenated tallow) ammonium compound [2HT]
effect on performance of ACQ wood preservative in soil-bed decay test [1]: improves the performance
effect on toxicity of ACQ wood preservative toward Postia placenta [2]: almost double
